Where no end group is shown, it is not given here. The star is where a group is joined. Biotin = O=C1N[C@H]2[C@H](CS[C@H]2CCCCC(=O)*)N1
Assays:
[1] = Circular dichroism spectroscopy of reference helix peptides; type: physicochemical
Experimental: To confirm whether the reference helix of ANO1 forms an α-helix, circular dichroism spectroscopy was performed with synthetic peptides spanning the reference helix regions of ANO1 (652-LFEIGIPKMKKFIRYLKL-669) and ANO2 (604-IFEIGVPKLKKLFRKLKD-621).

[2] = tested on: biotinylated Ca^2+ sensor helix peptide of ANO1 (692-NLEPFAGLTPEYMEM-706); experiment: Surface plasmon resonance, binding to immobilized Ca^2+ sensor helix peptide; parameters: species or system mouse
Experimental: According to the gating hypothesis, physical binding of the two helices and the interference of Ca^2+ in this interaction are key determinants for gating ANO1. To investigate this relationship, physical interaction between the two helices was measured using surface plasmon resonance. A peptide segment (692-NLEPFAGLTPEYMEM-706) spanning the Ca^2+ sensor helix of ANO1 was synthesized, biotinylated at the N-terminus, and immobilized on a streptavidin-coated gold sensor chip. Subsequently, a synthetic peptide spanning the reference helix (651-[…]-671) was passed over the immobilized Ca^2+ sensor helix.
A Biacore 3000 was used for kinetic surface plasmon resonance measurement as previously described. Briefly, a biotinylated peptide (692-NLEPFAGLTPEYMEM-706) was immobilized on a SA chip or custom streptavidin-coated CM5 sensor chip (GE Healthcare), with one flow cell with biotin alone as a reference cell. For the binding assay, HEPES-buffered saline containing 0.005 % of Tween 20 was used as a running buffer. Various concentrations of the reference helix peptide (aa 651–671) were injected for 120 s and dissociated for 240 s at a flow rate of 20 μL/min. Binding curves were analyzed using BIAevaluation 3.1.

[3] = tested on: ANO1; experiment: Inhibition of Eact-activated ANO1 currents by helix peptides, inside-out patches; type: cell-based, mouse; details: n = 5
Experimental: Fig. 6 Eact, a synthetic agonist of ANO1 acts on the ICL3 region. a Example traces depicting activation by Eact of WT ANO1 (upper left), 444-EEEEE-448 (Δ5E, upper right), ΔICL3 (lower left), and 659-QMQQFIAYLQ-668 mutant (lower right). b Example traces of Eact-induced ANO1 currents, which were blocked by bath application of the reference helix peptide (Ref helix peptide, 651-[…]-671, 4 μM, lower panel) but not by the Ca^2+ sensor helix peptide (CSH peptide, 700-TPEYMEMIIQFGF-712, 10 μM, middle panel). To test the effects of peptide, 1 μM Eact was applied three times. At the second Eact challenge, each peptide was also applied. c A summary of the effects of applications of helix peptides on Eact-induced ANO1 currents. Current amplitudes were normalized to the current amplitude obtained after of the first Eact challenge. Reference helix peptide (black square, n = 5), its Ala-mutant peptide (black inverted triangle, n = 5), Ca^2+ sensor helix peptide (black triangle, n = 5), or vehicle (white circle, n = 14) was applied at the second Eact challenge. *p < 0.05 compared to the relative response of vehicle application, one-way ANOVA followed by Newman-Keuls post hoc test
We then applied the two helix peptides to see if these peptides compete with Eact in activating ANO1.
All mutants were generated from the wild-type construct, mouse ANO1 (pEGFP-N1-mANO1). […]
(§1) Borosilicate glass pipettes (World Precision Instruments, Sarasota, FL) with tip resistances of ~2 Mohms were used to form gigaseals on HEK cells. […] Currents were recorded with a patch-clamp amplifier (Axopatch 200B, […]) with a 1-KHz filter. […]
(§2) The control pipette solution contained 140 mM N-methyl D-glucamine, 2 mM MgCl2, and 10 mM HEPES adjusted to pH 7.2 with HCl. […] The bath solution contained (in mM) 140 N-methyl D-glucamine, 2 MgCl2, 10 HEPES, 10 chelator (EGTA, N(2-hydroxyethyl) ethylenediamine triacetic acid (HEDTA), or nitrilotriacetic acid (NTA)), and a calculated amount of CaCl2 (adjusted with HCl to pH 7.2). […] Free Ca^2+ less than 30 μM in each solution was monitored with Fura-2 fluorometry.

[4] = tested on: ANO1; experiment: Block of Ca^2+-induced ANO1 currents by helix peptides, inside-out patches; type: cell-based, mouse; details: 3 μM Ca^2+, E h = +80 mV
Experimental: Fig. 4 The reference helix of the ICL3 region interacts with the Ca^2+ sensor helix in a Ca^2+-dependent way. a, b Physical interaction between the reference and Ca^2+ sensor helices was assessed with a surface plasmon resonance assay. Biotinylated Ca^2+ sensor helix peptide (692-NLEPFAGLTPEYMEM-706) was immobilized on a streptavidin-coated gold sensor chip. Resonance intensities were measured after solutions containing 0, 0.4, and 2.0 mM Ca^2+ and various concentrations of reference helix peptide (651-[…]-671) (a) or its Ala-substituted mutants (651-[…]-671) (b) were flowed through the gold chip. […] Ca^2+ (3 μM) was applied three times to inside-out patches of ANO1-transfected HEK cells. At the second Ca^2+ challenge, the peptides were also given. […] Current amplitudes were normalized to the current amplitude obtained after of the first Ca^2+ challenge. At the second Ca^2+ challenge, reference helix peptide (black circle, **p < 0.01 compared to the relative response of vehicle application, one-way ANOVA, Newman-Keuls post hoc test, n = 13), Ala-replaced reference helix peptide (black inverted triangle, n = 8), the Ca^2+ sensor helix peptide (700-TPEYMEMIIQFGF-712) (black square, **p < 0.01 compared to the relative response of vehicle application, one-way ANOVA, Newman-Keuls post hoc test, n = 7), and vehicle (white circle, n = 8) were also applied […]
as §1, §2

[5] = tested on: ANO1; experiment: Eact activation of ANO1, inside-out patches; type: cell-based, mouse; details: 1 μM Eact to bath of inside-out patch
Experimental: (§3) Eact, a synthetic agonist of ANO1, was synthesized for the purpose of treating cystic fibrosis in an attempt to bypass dysfunctioning CFTR channel. Even though Eact was known to activate ANO1, the activation mechanism is not known. We therefore hypothesized that Eact also acts on the ICL3 region.
(§4) All mutants were generated from the wild-type construct, mouse ANO1 (pEGFP-N1-mANO1). Amino acid substitution or deletion mutants were prepared using a site-directed mutagenesis kit (Muta-direct, iNtRON Biotech) or by using the overlap PCR method. Mutations in all mutants were confirmed by sequencing whole nucleotide sequences. […]
as §1, §2

[6] = tested on: ANO1 659-QMQQFIAYLQ-668 mutant; experiment: Eact activation of ANO1 reference helix mutant; type: cell-based, mouse
Experimental: as §3, §4, §1, §2

[7] = tested on: Δ5E ANO1 mutant; experiment: Eact activation of Δ5E ANO1 mutant, inside-out patches; type: cell-based, mouse; details: maximal Eact (10 μM)
Experimental: as §3, §4, §1, §2

[8] = tested on: ANO1 285-AGAYAGA-291 mutant; experiment: Eact activation of ANO1 EF-hand-like region mutant; type: cell-based, mouse; details: data not shown
Experimental: as §3, §4, §1, §2

[9] = tested on: ΔICL3, the deletion mutant of ANO1 in the ICL3 region; experiment: Eact activation of ΔICL3 ANO1 mutant; type: cell-based, mouse
Experimental: as §3, §4, §1, §2

[10] = tested on: ANO1 QYMQ mutant; experiment: Eact activation of ANO1 Ca^2+ sensor helix mutant; type: cell-based, mouse; details: data not shown
Experimental: as §3, §4, §1, §2

[11] = target: T1, Ca2+ sensor helix peptide of ANO1 (692-NLEPFAGLTPEYMEM-706), biotinylated (mouse); experiment: SPR; Biacore 3000; biotinylated Ca2+ sensor helix peptide immobilised on an SA chip or custom streptavidin-coated CM5 chip, reference cell with biotin alone; HEPES-buffered saline with 0.005 % Tween 20; various concentrations of reference helix peptide injected for 120 s, dissociation 240 s, 20 uL/min; solutions with 0, 0.4 and 2.0 mM Ca2+ (Ca2+ reduced the interaction dose-dependently); details: both partners purified
T1 construct: Anoctamin 1 (ANO1/TMEM16A), mouse, residues 692-706, Ca2+ sensor helix of the third intracellular loop (ICL3); Held on the streptavidin chip by its N-terminal biotin; also called biotinylated Ca2+ sensor helix peptide; source: synthetic peptide
T1 peptide: Biotin-NLEPFAGLTPEYMEM

604-IFEIGVPKLKKLFRKLKD-621
circular dichroism spectrum [1]: typical circular dichroism spectrum of an α-helix with a positive band around 192 nm and negative bands around 208 and 222 nm

651-NLFEIGIPAMAAFIAYLALAA-671 [Ala-mutant reference helix peptide]
interaction with Ca^2+ sensor helix peptide ([2]; regardless of Ca^2+ concentration (0, 0.4 and 2.0 mM)): failed to show any interaction | effect on Eact-activated ANO1 currents ([3]; Ala-substituted peptide with 1 μM Eact): failed to inhibit | effect on Ca^2+-induced ANO1 currents ([4]; 4 μM Ala-mutant peptide, n = 8): failed to block

651-NLFEIGIPKMKKFIRYLKLRR-671 [reference helix peptide]
interaction with Ca^2+ sensor helix peptide ([2]; absence of Ca^2+, Biacore 3000, HEPES-buffered saline, 0.005 % Tween 20, 20 μL/min, 120 s injection, 240 s dissociation): interacted strongly with the Ca^2+ sensor helix | effect on Eact-activated ANO1 currents ([3]; 4 μM peptide with 1 μM Eact, p < 0.05 vs vehicle, one-way ANOVA, Newman-Keuls): significantly inhibited | effect on Ca^2+-induced ANO1 currents ([4]; 4 μM peptide, p < 0.01 vs vehicle, one-way ANOVA, Newman-Keuls, n = 13): markedly blocked

652-LFEIGIPKMKKFIRYLKL-669
circular dichroism spectrum [1]: typical circular dichroism spectrum of an α-helix with a positive band around 192 nm and negative bands around 208 and 222 nm

700-TPEYMEMIIQFGF-712 [Ca^2+ sensor helix peptide, Ca^2+ sensor helix peptide (700-…-712)]
effect on Eact-activated ANO1 currents ([3]; 10 μM peptide with 1 μM Eact): failed to inhibit | effect on Ca^2+-induced ANO1 currents ([4]; 10 μM peptide, p < 0.01 vs vehicle, one-way ANOVA, Newman-Keuls, n = 7): markedly blocked

COCCN(C(=O)c1cc(OC)c(OC)c(OC)c1)c1nc(-c2ccccc2)cs1 [Eact]
activation of ANO1 by Eact [5]: activated ANO1 | activation by Eact [6]: failed to activate | activation by Eact [7]: activated the Δ5E ANO1 mutant | activation by Eact [8]: activated 285-AGAYAGA-291 mutant | activation by Eact [9]: failed to activate | activation by Eact [10]: failed to activate

NLFEIGIPKMKKFIRYLKLRR (source: synthetic peptide) [reference helix peptide of ANO1 (651-NLFEIGIPKMKKFIRYLKLRR-671)]
binding result [11]: binds

From article PMC4502317, “Two helices in the third intracellular loop determine anoctamin 1 (TMEM16A) activation by calcium” (Pflugers Archiv, 2014)
